Source: patent US5248667A, “Method of treating psoriasis using synthetic peptide compositions” (The United States of America as represented by the …, priority 1991, dated 1993)

System: normal volunteers
Test: CNS or immunologic toxicity in volunteers
Type: in vivo, human
Conditions: all patients / normal volunteers
Experimental: 1. 6 male research subjects with histories of substance abuse, childhood dyslexia, and depression, have received Peptide T intravenously in doses ranging from 0.033 mg/kg to 0.133 mg/kg per day for seven days.
2. a WM HIV seronegative normal volunteer received Peptide T both intranasally and sublingually at 12.5 mg BID for one week coincidentally reported improvement in multiple red, scaling pruritic areas located in scalp and lower neck areas. This individual has a history of mild psoriasis which, by personal choice, has been treated with only topical treatments including hydrocortisone, coal tar derivatives, and calamine lotion.
3. No evidence of either CNS or immunologic toxicity associated with drug administration was aobserved in any of these patients in any of these normal volunteers.

Compound: C[C@@H](N)C(=O)N[C@@H](CO)C(=O)N[C@H](C(=O)N[C@H](C(=O)N[C@H](C(=O)N[C@@H](CC(N)=O)C(=O)N[C@@H](Cc1ccc(O)cc1)C(=O)N[C@H](C(N)=O)[C@@H](C)O)[C@@H](C)O)[C@@H](C)O)[C@@H](C)O [Peptide T, D-Ala-Ser-Thr-Thr-Thr-Asn-Tyr-Thr-amide]
- CNS or immunologic toxicity associated with drug administration: No evidence
